Common to all, as to test: relative viability (nuclei count vs DMSO), 5 days (fraction); higher = more cells survive
Compound in assay [1]: COc1cc(Nc2ncc(F)c(Nc3ccc4c(n3)NC(=O)C(C)(C)O4)n2)cc(OC)c1OC [R406] + C[C@]1(O)C[C@@H](c2nc(-c3ccc4ccc(-c5ccccc5)nc4c3)c3c(N)nccn32)C1 [Linsitinib] (partner 1 µM)
In a few lines:
(§1)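 Nuclei were stained with Hoechst during a one-step fixation (final 0.05% Triton X-100, 1% formaldehyde, 1 ug/ml Hoechst) carried out 5 days after dosing, then counted on 4× images. The cells, lung cancer lines in 1536-well plates, had been dosed by pin tool the day after seeding with one drug alone or a fixed anchor-drug dose plus five library-drug doses (not always all listed) in √10 steps. Relative viability is the nuclei count in treated wells divided by that in vehicle wells, and each value is the median of duplicate plates.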

Compound in assay [2]: COc1cc(Nc2ncc(F)c(Nc3ccc4c(n3)NC(=O)C(C)(C)O4)n2)cc(OC)c1OC [R406] + O=C(c1cc(Cc2n[nH]c(=O)c3ccccc23)ccc1F)N1CCN(C(=O)C2CC2)CC1 [Olaparib] (partner 8 µM)
In a few lines:
as §1

Compound in assay [3]: O=C(/C=C/c1cccnc1)NCCCCC1CCN(C(=O)c2ccccc2)CC1 [Daporinad] + CC(=O)Nc1cccc(-n2c(=O)n(C3CC3)c(=O)c3c(Nc4ccc(I)cc4F)n(C)c(=O)c(C)c32)c1 [Trametinib] (partner 0.02 µM)
In a few lines: as §1

Compound in assay [4]: O=C(/C=C/c1cccnc1)NCCCCC1CCN(C(=O)c2ccccc2)CC1 [Daporinad] + N=C(N)NC(=N)NCCc1ccccc1 [Phenformin] (partner 250 µM)
In a few lines: as §1

With UMC-11, the relative viability was 1.1 in assay [1] (first compound 0.08 µM); 1.1 in assay [1] (first compound 0.253 µM); 1.16 in assay [1] (first compound 0.8 µM); 0.935 in assay [1] (first compound 2.53 µM); 0.474 in assay [1] (first compound 8 µM); 0.392 in assay [2] (first compound 0.08 µM). For the same cell line, the relative viability in assay [2] (first compound 0.253 µM) stood at 0.348; in assay [2] (first compound 0.8 µM) it was 0.342; in assay [2] (first compound 2.53 µM), 0.363; in assay [2] (first compound 8 µM) it was 0.199; in assay [3] (first compound 0.0005 µM) it was 0.645; in assay [3] (first compound 0.001581 µM), 0.926. Further, the relative viability in assay [3] (first compound 0.005 µM) turned out to be 0.775; in assay [3] (first compound 0.01581 µM), 1.14; in assay [4] (first compound 0.0005 µM), 0.266; in assay [4] (first compound 0.001581 µM), 0.348; in assay [4] (first compound 0.005 µM) it was 0.353; in assay [4] (first compound 0.01581 µM) it was 0.367.

Source of the values: the supplement of paper PMC10307832.
